Data as given in patent publication US11708562B2, “Differentiation of human embryonic stem cells” (Janssen Biotech, Inc., priority 2006, dated 2023).

Test system: H9P33, H9P44 and H9P48 cells
Test: Microarray analysis of definitive endoderm on MEFs vs MATRIGEL +/- Wnt-3A (Table VI)
Description: Controls for each group included cells plated on […]-coated dishes and cultured in MEF-conditioned medium or cells plated on MEFs and cultured in ES medium. All groups contained three biological replicates and each biological replicate was repeated on two separate gene chips.
Sample preparation, hybridization, and image analysis were performed according to the Affymetrix Human Genome U133 Plus 2.0 Array. Following normalization and a log transformation, data analysis was performed using OmniViz® software (MA) and […] (VizXLabs, WA). Significant differences in gene expression between the samples were evaluated using analysis of variance and an F-test with adjusted P-value (Benjamini and Hochberg correction) of ≤0.05. Only genes with a present call in at least one group were included in the analysis.

[1] = DE treatment in low serum, on MEFS
[2] = log format, DE treatment in low serum + AA on MATRIGEL

Activin A: a member of the TGFβ superfamily; growth factor (R&D Systems) used to differentiate human embryonic stem cells
mean normalized intensity (log format), Homo sapiens glycophorin Erik STA (GPErik) gene [1]: −0.4544
mean normalized intensity (log format), Homo sapiens growth differentiation factor 3 (GDF3), mRNA [1]: 2.875
mean normalized intensity (log format), Homo sapiens haptoglobin (HP), mRNA [1]: 0.477
mean normalized intensity (log format), Homo sapiens haptoglobin-related protein (HPR), mRNA [1]: −1.196
mean normalized intensity (log format), Homo sapiens homeobox protein goosecoid mRNA, complete cds [1]: 1.894
mean normalized intensity (log format), Homo sapiens hypothetical protein FLJ10718 (FLJ10718), mRNA [1]: 5.552
mean normalized intensity (log format), Homo sapiens hypothetical protein FLJ10970 (FLJ10970), mRNA [1]: 3.02
mean normalized intensity (log format), Homo sapiens hypothetical protein FLJ11316 (FLJ11316), mRNA [1]: 0.7553
mean normalized intensity (log format), Homo sapiens hypothetical protein FLJ22252 similar to SRY-box containing gene 17 (FLJ22252), mRNA [1]: 4.5979
mean normalized intensity (log format), Homo sapiens hypothetical protein FLJ23403 (FLJ23403), mRNA [1]: −1.004
mean normalized intensity (log format), Homo sapiens lumican (LUM), mRNA [1]: 0.9488
mean normalized intensity (log format), Homo sapiens mRNA for GATA-6, complete cds [1]: 5.343
mean normalized intensity (log format), Homo sapiens mRNA for KIAA1409 protein, partial cds [1]: −1.032
mean normalized intensity (log format), Homo sapiens mRNA; cDNA DKFZp434D0818 (from clone DKFZp434D0818) [1]: −0.3056
mean normalized intensity (log format), Homo sapiens mRNA; cDNA DKFZp586J0624 (from clone DKFZp586J0624) [1]: 3.699
mean normalized intensity (log format), Homo sapiens matrix metalloproteinase 14 (membrane-inserted) (MMP14), mRNA [1]: −0.09689
mean normalized intensity (log format), Homo sapiens phorbolin-like protein MDS019 (MDS019), mRNA [1]: 2.408
mean normalized intensity (log format), Homo sapiens presenilin stabilization factor b (PSF) mRNA [1]: 0.5675
mean normalized intensity (log format), Homo sapiens reserved (KCNK12), mRNA [1]: 3.78
mean normalized intensity (log format), Homo sapiens retinoid X receptor, gamma (RXRG), mRNA [1]: −0.3204
mean normalized intensity (log format), Homo sapiens sema domain, immunoglobulin domain (Ig), short basic domain, secreted, (semaphorin) 3E (SEMA3E), mRNA [1]: 1.276
mean normalized intensity (log format), Homo sapiens sema domain, seven thrombospondin repeats, (semaphorin) 5A (SEMA5A), mRNA [1]: 1.487
mean normalized intensity (log format), Homo sapiens solute carrier family 16 (monocarboxylic acid transporters), member 3 (SLC16A3), mRNA [1]: 1.724
mean normalized intensity (log format), Homo sapiens solute carrier family 21 (prostaglandin transporter), member 2 (SLC21A2), mRNA [1]: 2.433
mean normalized intensity (log format), Homo sapiens type VI collagen alpha 2 chain precursor (COL6A2) mRNA [1]: 2.845
mean normalized intensity (log format), Homo sapiens, alpha-1 (VI) collagen [1]: −2.269
mean normalized intensity (log format), Homo sapiens, clone MGC: 4655, mRNA [1]: 2.476
mean normalized intensity (log format), Human (clone 8B1) Br-cadherin mRNA [1]: −1.026
mean normalized intensity (log format), Human (clone HSY3RR) neuropeptide Y receptor (NPYR) mRNA [1]: 5.48
mean normalized intensity (log format), Human DNA sequence from clone RP1-181C24 on chromosome 6p11.1-12.2 (3 end of the BMP5 gene) [1]: −0.3731
mean normalized intensity (log format), Human Fritz mRNA, complete cds [1]: 3.915
mean normalized intensity (log format), Human dipeptidyl peptidase IV (CD26) mRNA [1]: −1.256
mean normalized intensity (log format), Human glycophorin HeP2 mRNA, partial cds [1]: 0.2335
mean normalized intensity (log format), Human link protein mRNA, complete cds [1]: −1.263
mean normalized intensity (log format), Human mRNA for alpha-1 type II collagen [1]: −0.3802
mean normalized intensity (log format), Human mRNA for apolipoprotein AI (apo AI) [1]: 2.497
mean normalized intensity (log format), Human prostatic secretory protein 57 mRNA [1]: −0.4077
mean normalized intensity (log format), KIAA0878 protein [1]: 4.789
mean normalized intensity (log format), KIAA1462 protein [1]: 0.4371
mean normalized intensity (log format), MCP-1 = monocyte chemotactic protein [1]: 2.955
mean normalized intensity (log format), Rho GDP dissociation inhibitor (GDI) alpha [1]: −2.582
mean normalized intensity (log format), WAS protein family, member 2 [1]: −1.06
mean normalized intensity (log format), collagen, type IX, alpha 2 [1]: 2.935
mean normalized intensity (log format), collagen, type VI, alpha 1 [1]: 0.6042
mean normalized intensity (log format), glycophorin B (includes Ss blood group) [1]: −0.1297
mean normalized intensity (log format), hepatocyte nuclear factor 4, alpha [1]: 0.4452
mean normalized intensity (log format), homeo box HB9 [1]: 1.631
mean normalized intensity (log format), hypothetical protein FLJ21032 [1]: 2.618
mean normalized intensity (log format), hypothetical protein FLJ23091 [1]: 3.78
mean normalized intensity (log format), hypothetical protein FLJ23403 [1]: −2.313
mean normalized intensity (log format), matrix metalloproteinase 14 (membrane-inserted) [1]: −0.5185
mean normalized intensity (log format), microfibrillar-associated protein 4 [1]: −0.6009
mean normalized intensity (log format), myristoylated alanine-rich protein kinase C substrate (MARCKS, 80K-L) [1]: 0.3357
mean normalized intensity (log format), neuropilin 1 [1]: −1.9667
mean normalized intensity (log format), noggin [1]: 1.33
mean normalized intensity (log format), phorbolin-like protein MDS019 [1]: 0.5035
mean normalized intensity (log format), solute carrier family 16 (monocarboxylic acid transporters), member 3 [1]: 0.279
mean normalized intensity (log format), splicing factor, arginineserine-rich 5 [1]: 4.272
mean normalized intensity (log format), stanniocalcin 1 [1]: 6.143
mean normalized intensity: DKFZP566K1924 protein [2]: 2.882
mean normalized intensity: ESTs, Moderately similar to ALU2_HUMAN ALU SUBFAMILY SB SEQUENCE CONTAMINATION WARNING ENTRY (H. sapiens) [2]: 4.241
mean normalized intensity: H. sapiens mRNA for B-HLH DNA binding protein. [2]: 5.43
mean normalized intensity: Homo sapiens BCL2-interacting killer (apoptosis-inducing) (BIK), mRNA. [2]: 4.3
mean normalized intensity: Homo sapiens Charot-Leyden crystal protein (CLC), mRNA. [2]: 3.301
mean normalized intensity: Homo sapiens HES-related repressor protein 1 HERP1 mRNA, complete cds. [2]: 2.806
mean normalized intensity: Homo sapiens HSPC156 protein (HSPC156), mRNA. [2]: 0.7862
mean normalized intensity: Homo sapiens KIAA0469 gene product (KIAA0469), mRNA. [2]: 4.031
mean normalized intensity: Homo sapiens PNAS-123 mRNA, complete cds [2]: 1.597
mean normalized intensity: Homo sapiens Wilms tumor 1 (WT1), transcript variant D, mRNA. [2]: 2.405
mean normalized intensity: Homo sapiens cDNA FLJ11398 fis, clone HEMBA1000637. [2]: 2.5268
mean normalized intensity: Homo sapiens cDNA: FLJ22547 fis, clone HSI00356 [2]: 4.294
mean normalized intensity: Homo sapiens cadherin 6, type 2, K-cadherin (fetal kidney) (CDH6), mRNA. [2]: 0.8248
